Source: patent US9482923B2, “Colored composition and image display structure” (FUJIFILM CORPORATION, priority 2011, dated 2016)

Tests used:
Type in all cases: physicochemical
[1] = Solubility of the dye in n-hexane; details: for Solubility (% by mass): in n-hexane at 25° C. and 0.1 MPa; for Solubility (in words): n-hexane
Experimental: 3. Solubility in n-Hexane
The solubility of each of the dyes in n-hexane (solvent) was determined as follows.
Each of the dyes to be measured was dissolved in n-hexane heated at 50° C., thereby preparing a saturated solution. The saturated solution obtained was then left in an environment of 25° C. and 0.1 MPa for 1 hour. The precipitated dye was filtered, and the precipitation amount was measured, from which the solubility (% by mass) of the dye in n-hexane at 25° C. and 0.1 MPa was calculated.

[2] = Absorption maximum wavelength and absorption coefficient of colored composition (visible-light spectrophotometer); parameters: Absorption Coefficient (ε): unit not given here; details: n-hexane solution; for Absorption Coefficient (ε): calculated by Lambert-Beer law
Experimental: Each of the dyes shown above as Exemplary Compounds D-2, D-11, D-13, D-14, D-25, D-37, E-2, E-3, and E-7 was dissolved in a solvent (n-hexane) to make a 3% by mass solution, thereby preparing a colored composition (ink). Each of the colored compositions (inks) obtained was evaluated with respect to its color, absorption maximum wavelength (λmax), absorbance (abs), absorption coefficient (∈), viscosity, and relative dielectric constant, and solubility (% by mass) of each of the dyes in a solvent.
2. Absorption Maximum Wavelength, Absorbance, and Absorption Coefficient of Colored Composition
The absorption maximum wavelength (λmax) and the absorbance (abs) of the colored composition were measured using a visible-light spectrophotometer (trade name: UV-1800PC, manufactured by Shimadzu Corporation). The absorption coefficient (∈) was calculated based on the Lambert-Beer law.

[3] = Measurement of relative dielectric constant of the dye (LCR meter, extrapolation); details: extrapolated from 5, 7.5 and 10% by mass n-hexane solutions, 20° C., 40% RH, 1 kHz
Experimental: 4. Measurement of Relative Dielectric Constant
Solutions of the dye in n-hexane having concentrations of 5% by mass, 7.5% by mass and 10% by mass, respectively, were prepared, and individually injected into glass cells each having transparent indium-tin-oxide electrodes and a cell gap of 10 μm. The electrical capacities of the resultant cells were measured at 20° C. and 40% RH using a type 2353 LCR meter (manufactured by NF Corporation) at a measurement frequency of 1 kHz. The electrical capacity of n-hexane was also measured as a control sample. The relative dielectric constant of the dye was calculated based on the extrapolation method using the dielectric constants of the above prepared dye solutions calculated from the their electric capacities.

[4] = Measurement of viscosity of dye solutions in n-hexane (R-type viscometer); details: 20° C.; for Viscosity (5%): 5% by mass solution in n-hexane

| Compound | Solubility (% by mass) [1] [% by mass] | Absorption Maximum Wavelength λmax [2] [nm] | Absorption Coefficient (ε) [2] | Relative Dielectric Constant [3] | Viscosity (5%) [4] [mPa · S] | Viscosity (10%) ([4]; 10% by mass solution in n-hexane) [mPa · S] | Solubility (in words) [1] |
| --- | --- | --- | --- | --- | --- | --- | --- |
| CCCCCCCCCCCCN(CCCCCCCCCCCC)c1ccc(C=C2C(=O)ON=C2c2ccccc2)cc1 [D-2] | 10.5 | 468 | 4.50 × 10^4 | 8.2 | 2.1 | 3.2 |  |
| CCCCOC(=O)CN(CC(=O)OCCCC)c1ccc(C=C2C(=O)ON=C2C(C)(C)C)cc1 [D-11] | 5.0 | 459 | 3.80 × 10^4 |  | 2.1 |  |  |
| CCCCCCCCCCCCn1cc(C=C2C(=O)ON=C2c2ccccc2)c2ccccc21 [D-25] | 8.0 | 426 | 3.66 × 10^4 |  | 2.1 |  |  |
| CCCCCCN(CCCCCC)c1ccc(C=C2C(=O)ON=C2C(C)(C)C)c(C)c1 [D-37] | 1.2 | 465 | 4.10 × 10^4 |  |  |  |  |
| Cc1cc(C=C2C(=O)ON=C2C(C)(C)C)c(C)n1-c1ccc(C(=O)O)cc1 [D-101, reference compound] | 0.015 |  |  |  |  |  | low solubility |
| COc1ccc(C2=NOC(=O)C2=Cc2ccc(N(CC(=O)O)CC(=O)O)cc2)cc1 [D-102, reference compound] | 0.008 |  |  |  |  |  | low solubility |
| CCCCCCCCCCCCN(CCCCCCCCCCCC)c1ccc(C=CC=C2C(=O)ON=C2C(C)(C)C)c(C)c1 [E-2] | 6.5 | 515 | 5.10 × 10^4 | 9.5 | 2.1 |  |  |
| CCCCCCCCN(CCCCCCCC)c1ccc(C=CC=C2C(=O)ON=C2C(C)(C)C)c(OC)c1 [E-3] | 7.2 | 530 | 5.20 × 10^4 | 9.0 | 2.1 |  |  |
| CCCCCCCCCCCCN(CCCCCCCCCCCC)c1ccc(C=CC=CC=C2C(=O)ON=C2C)c(C)c1 [E-7] | 5.0 | 556 | 5.20 × 10^4 |  | 2.3 |  |  |
